Data set [1] has as its target T1, Interferon-inducible protein AIM2 (Mus musculus) (UniProt Q91VJ1).
T1 sequence (whole entry): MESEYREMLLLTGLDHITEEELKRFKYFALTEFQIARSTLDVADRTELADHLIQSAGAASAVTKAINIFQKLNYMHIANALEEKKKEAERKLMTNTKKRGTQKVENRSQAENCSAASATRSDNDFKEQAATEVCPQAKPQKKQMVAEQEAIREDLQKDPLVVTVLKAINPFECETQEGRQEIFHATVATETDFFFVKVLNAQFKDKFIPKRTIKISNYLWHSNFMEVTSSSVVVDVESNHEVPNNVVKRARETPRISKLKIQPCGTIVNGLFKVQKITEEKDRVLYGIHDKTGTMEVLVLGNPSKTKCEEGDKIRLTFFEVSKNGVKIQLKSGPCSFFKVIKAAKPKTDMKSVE
The experiment in a line: Inhibition of AIM2 inflammasome activation in C57 mouse BMDM cells assessed as reduction in caspase-1 maturation at 5 uM preincubated with LPS for 3 hrs followed by poly(dA:dT) stimulation for 4 hrs by Western blot analysis. The class given is cell-based.

The target of data set [2] is NLR family CARD domain-containing protein 4 (Mus musculus) (UniProt Q3UP24). Kind of data set: Inhibition of NLRC4 inflammasome activation in C57 mouse BMDM cells assessed as reduction in IL-1beta secretion at 5 uM preincubated with LPS for 3 hrs followed by Salmonella typhimurium stimulation for 2 hrs by Western blot analysis. The format is cell-based.
For data set [3] the target is unchanged. The experiment in a line: Inhibition of NLRC4 inflammasome activation in C57 mouse BMDM cells assessed as reduction in caspase-1 maturation at 5 uM preincubated with LPS for 3 hrs followed by Salmonella typhimurium stimulation for 2 hrs by Western blot analysis. The class given is cell-based.
Data set [4] addresses NACHT, LRR and PYD domains-containing protein 3 (Mus musculus) (UniProt Q8R4B8). Kind of data set: Inhibition of NLRP3 inflammasome activation in C57 mouse BMDM cells assessed as reduction in IL-1beta secretion at 5 uM preincubated with LPS for 3 hrs followed by compound addition for 30 mins prior to ATP addition and measured after 30 mins by Western blot analysis. The class given is cell-based. The conditions noted are these: time 1.0 hrs.

The target is the same in data set [5]. The experiment in a line: Inhibition of NLRP3 inflammasome activation in C57 mouse BMDM cells assessed as reduction in caspase-1 maturation at 5 uM preincubated with LPS for 3 hrs followed by compound addition for 30 mins prior to ATP addition and measured after 30 mins by Western blot analysis. The class given is cell-based. The conditions noted are these: time 1.0 hrs.

Data set [6] has the same target. The experiment in a line: Inhibition of NLRP3 inflammasome activation in C57 mouse BMDM cells assessed as reduction in IL-1beta secretion at 5 uM preincubated with LPS for 3 hrs followed by compound addition for 30 mins prior to MSU addition and measured after 4 hrs by Western blot analysis. As to conditions: time 4.5 hrs. The class given is cell-based.
For data set [7] the target is unchanged. The experiment in a line: Inhibition of NLRP3 inflammasome activation in C57 mouse BMDM cells assessed as reduction in caspase-1 maturation at 5 uM preincubated with LPS for 3 hrs followed by compound addition for 30 mins prior to MSU addition and measured after 4 hrs by Western blot analysis. The format is cell-based. The conditions noted are these: time 4.5 hrs.

For data set [8] the target is unchanged. The experiment in a line: Inhibition of NLRP3 inflammasome assembly in C57 mouse BMDM cells assessed as reduction in ASC monomer at 2.5 to 10 uM preincubated with LPS for 3 hrs followed by compound addition for 30 mins prior to nigericin addition and measured after 30 mins by blotting analysis. The class given is cell-based. The conditions noted are these: dose 2.5-10 µM, time 1.0 hrs.

The target is the same in data set [9]. The experiment in a line: Inhibition of NLRP3 inflammasome assembly in C57 mouse BMDM cells assessed as reduction in higher order complex cross-linking at 2.5 to 10 uM preincubated with LPS for 3 hrs followed by compound addition for 30 mins prior to nigericin addition and measured after 30 mins by ASC oligomerization based blotting analysis. The class given is cell-based. As to conditions: dose 2.5-10 µM, time 1.0 hrs.

Data set [10] has the same target. The experiment in a line: Inhibition of NLRP3 inflammasome assembly in C57 mouse BMDM cells assessed as effect on NEK7 binding at 2.5 to 10 uM preincubated with LPS for 3 hrs followed by compound addition for 30 mins prior to nigericin addition and measured after 30 mins by immunoprecipitation. The class given is cell-based. As to conditions: dose 2.5-10 µM, time 1.0 hrs.

The target is the same in data set [11]. Kind of data set: Inhibition of NLRP3 inflammasome assembly in C57 mouse BMDM cells assessed as effect on ASC binding at 2.5 to 10 uM preincubated with LPS for 3 hrs followed by compound addition for 30 mins prior to nigericin addition and measured after 30 mins by immunoprecipitation. The format is cell-based. The conditions noted are these: dose 2.5-10 µM, time 1.0 hrs.

Data set [12] can be described thus: Stability in human liver microsomes assessed as half-life at 1.5 uM measured upto 45 mins in presence of NADPH by LC-MS/MS analysis. The class given is ADME, Microsome.
Data set [13] can be described thus: Stability in human liver microsomes assessed as intrinsic clearance at 1.5 uM measured upto 45 mins in presence of NADPH by LC-MS/MS analysis. The class given is ADME, Microsome. As to conditions: read-out: CLH.
Data set [14] deals with NACHT, LRR and PYD domains-containing protein 3 (Homo sapiens, UniProt Q96P20). The experiment in a line: Binding affinity to CM5 chip immobilized NLRP3 (unknown origin) assessed as dissociation constant by SPR analysis.
Data set [15] addresses NACHT, LRR and PYD domains-containing protein 3 (Mus musculus) (UniProt Q8R4B8). Kind of data set: Binding affinity to NLRP3 in mouse J774.A1 cells assessed as reduction in NLRP3 degradation incubated for 1 hrs at 48 to 81 degreeC by CETSA based Western blot analysis. The format is cell-based.
In data set [16] the test system is Mus musculus. Kind of data set: Anti-inflammatory activity in LPS-induced C57 sepsis mouse model assessed as reduction in serum IL-1beta level at 10 to 30 mg/kg, ip preadministered with compound for 30 mins followed by LPS stimulation and measured after 6 hrs by ELISA. The class given is functional, organism-based. As to conditions: dose 10-30 mg/kg, time 6.5 hrs.

For data set [17], the system named is Mus musculus. Kind of data set: Anti-inflammatory activity in LPS-induced C57 sepsis mouse model assessed as reduction in inflammatory infiltration in liver at 10 to 30 mg/kg, ip preadministered with compound for 30 mins followed by LPS stimulation and measured after 6 hrs by H&E staining based analysis. The format is functional, organism-based. As to conditions: dose 10-30 mg/kg, time 6.5 hrs.

Data set [18] has as its system Mus musculus. The experiment in a line: Anti-inflammatory activity in MSU-induced C57 mouse model of acute peritonitis assessed as reduction in IL-1beta expression preadministered intraperitoneally with compound for 3 days followed by MSU injection and measured after 6 hrs by ELISA. The class given is functional, organism-based. As to conditions: dose 5-30 mg/kg, route ip, time 78.0 hrs.

The test system of data set [19] is Mus musculus. The experiment in a line: Anti-inflammatory activity in MSU-induced C57 mouse model of gouty arthritis assessed as reduction in foot swelling at 10 to 30 mg/kg, ip preadministered with compound for 3 days followed by MSU injection and measured after 24 hrs. The format is functional, organism-based. As to conditions: dose 10-30 mg/kg, time 4.0 day.

Data set [20] has as its system Mus musculus. Kind of data set: Anti-inflammatory activity in MSU-induced C57 mouse model of gouty arthritis assessed as reduction in AUC of foot swelling at 30 mg/kg, ip preadministered with compound for 3 days followed by MSU injection and measured after 24 hrs. The format is functional, organism-based. The conditions noted are these: time 4.0 day.
Data set [21] deals with Mus musculus. Kind of data set: Analgesic activity in MSU-induced C57 mouse model of gouty arthritis assessed as increase in pain threshold at 10 to 30 mg/kg, ip preadministered with compound for 3 days followed by MSU injection and measured after 24 hrs by von frey test. The format is functional, organism-based. The conditions noted are these: dose 10-30 mg/kg, time 4.0 day.

From ChEMBL document CHEMBL5634101, “Discovery of NLRP3 inhibitors using machine learning: Identification of a hit compound to treat NLRP3 activation-driven diseases” (Eur J Med Chem, 2023) come the findings set out here.

Activity calls are given as the source filed them.

Chain of NACHT, LRR and PYD domains-containing protein 3 (Mus musculus) (Q8R4B8 whole entry, the tested form may be a part): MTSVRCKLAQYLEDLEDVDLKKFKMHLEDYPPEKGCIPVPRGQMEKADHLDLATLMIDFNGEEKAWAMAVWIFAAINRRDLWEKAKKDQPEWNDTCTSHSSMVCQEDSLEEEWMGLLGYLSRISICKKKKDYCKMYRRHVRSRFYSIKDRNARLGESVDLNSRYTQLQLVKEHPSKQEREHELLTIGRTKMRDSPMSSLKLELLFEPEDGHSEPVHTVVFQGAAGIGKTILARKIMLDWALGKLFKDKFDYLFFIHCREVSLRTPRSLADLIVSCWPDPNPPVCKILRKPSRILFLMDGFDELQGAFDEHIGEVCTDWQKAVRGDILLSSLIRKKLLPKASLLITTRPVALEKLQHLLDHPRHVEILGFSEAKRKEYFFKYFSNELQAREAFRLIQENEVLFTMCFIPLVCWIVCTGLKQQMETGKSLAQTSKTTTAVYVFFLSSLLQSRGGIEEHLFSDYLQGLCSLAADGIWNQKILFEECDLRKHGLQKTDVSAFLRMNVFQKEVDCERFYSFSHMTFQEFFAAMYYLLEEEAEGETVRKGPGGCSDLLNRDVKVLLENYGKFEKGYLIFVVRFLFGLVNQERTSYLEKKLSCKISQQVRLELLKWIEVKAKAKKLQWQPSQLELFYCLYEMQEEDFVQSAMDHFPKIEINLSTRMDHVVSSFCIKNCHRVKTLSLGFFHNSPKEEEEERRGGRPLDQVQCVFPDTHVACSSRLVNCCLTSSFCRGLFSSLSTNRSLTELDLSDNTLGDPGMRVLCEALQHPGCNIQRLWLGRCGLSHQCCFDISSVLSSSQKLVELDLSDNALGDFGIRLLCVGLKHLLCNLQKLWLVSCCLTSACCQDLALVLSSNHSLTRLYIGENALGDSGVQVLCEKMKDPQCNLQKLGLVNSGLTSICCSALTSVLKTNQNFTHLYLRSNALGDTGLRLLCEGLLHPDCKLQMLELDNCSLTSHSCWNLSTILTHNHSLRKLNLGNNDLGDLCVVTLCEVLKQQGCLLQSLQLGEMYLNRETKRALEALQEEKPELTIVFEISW
Chain of NLR family CARD domain-containing protein 4 (Mus musculus) (Q3UP24 whole entry, the tested form may be a part): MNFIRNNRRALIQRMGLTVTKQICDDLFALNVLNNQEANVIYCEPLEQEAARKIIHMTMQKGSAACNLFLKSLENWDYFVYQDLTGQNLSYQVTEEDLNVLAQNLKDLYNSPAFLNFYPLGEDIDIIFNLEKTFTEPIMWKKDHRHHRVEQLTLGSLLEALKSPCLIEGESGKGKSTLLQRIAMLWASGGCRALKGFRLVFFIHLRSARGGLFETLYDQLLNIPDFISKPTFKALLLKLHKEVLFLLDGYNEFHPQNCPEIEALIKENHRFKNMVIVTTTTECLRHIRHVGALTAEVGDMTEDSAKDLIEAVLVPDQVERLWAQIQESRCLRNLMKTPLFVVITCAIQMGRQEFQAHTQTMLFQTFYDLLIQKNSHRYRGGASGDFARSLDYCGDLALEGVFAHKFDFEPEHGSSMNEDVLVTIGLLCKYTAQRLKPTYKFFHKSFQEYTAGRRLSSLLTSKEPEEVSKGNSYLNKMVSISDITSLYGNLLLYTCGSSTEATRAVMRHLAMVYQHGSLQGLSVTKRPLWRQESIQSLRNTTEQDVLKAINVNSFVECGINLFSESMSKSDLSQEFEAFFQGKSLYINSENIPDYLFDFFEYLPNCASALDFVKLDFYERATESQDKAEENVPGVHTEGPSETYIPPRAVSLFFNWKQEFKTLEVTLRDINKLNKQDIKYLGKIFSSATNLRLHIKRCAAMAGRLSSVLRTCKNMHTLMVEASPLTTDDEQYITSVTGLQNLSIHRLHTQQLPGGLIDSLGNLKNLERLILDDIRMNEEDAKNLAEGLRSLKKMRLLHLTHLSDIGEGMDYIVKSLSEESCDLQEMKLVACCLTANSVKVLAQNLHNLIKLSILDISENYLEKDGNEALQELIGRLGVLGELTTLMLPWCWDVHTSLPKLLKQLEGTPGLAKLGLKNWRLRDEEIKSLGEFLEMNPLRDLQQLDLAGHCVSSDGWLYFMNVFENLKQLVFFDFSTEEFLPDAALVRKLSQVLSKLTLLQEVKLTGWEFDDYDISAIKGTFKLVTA
Chain of NACHT, LRR and PYD domains-containing protein 3 (Q96P20 whole entry, the tested form may be a part): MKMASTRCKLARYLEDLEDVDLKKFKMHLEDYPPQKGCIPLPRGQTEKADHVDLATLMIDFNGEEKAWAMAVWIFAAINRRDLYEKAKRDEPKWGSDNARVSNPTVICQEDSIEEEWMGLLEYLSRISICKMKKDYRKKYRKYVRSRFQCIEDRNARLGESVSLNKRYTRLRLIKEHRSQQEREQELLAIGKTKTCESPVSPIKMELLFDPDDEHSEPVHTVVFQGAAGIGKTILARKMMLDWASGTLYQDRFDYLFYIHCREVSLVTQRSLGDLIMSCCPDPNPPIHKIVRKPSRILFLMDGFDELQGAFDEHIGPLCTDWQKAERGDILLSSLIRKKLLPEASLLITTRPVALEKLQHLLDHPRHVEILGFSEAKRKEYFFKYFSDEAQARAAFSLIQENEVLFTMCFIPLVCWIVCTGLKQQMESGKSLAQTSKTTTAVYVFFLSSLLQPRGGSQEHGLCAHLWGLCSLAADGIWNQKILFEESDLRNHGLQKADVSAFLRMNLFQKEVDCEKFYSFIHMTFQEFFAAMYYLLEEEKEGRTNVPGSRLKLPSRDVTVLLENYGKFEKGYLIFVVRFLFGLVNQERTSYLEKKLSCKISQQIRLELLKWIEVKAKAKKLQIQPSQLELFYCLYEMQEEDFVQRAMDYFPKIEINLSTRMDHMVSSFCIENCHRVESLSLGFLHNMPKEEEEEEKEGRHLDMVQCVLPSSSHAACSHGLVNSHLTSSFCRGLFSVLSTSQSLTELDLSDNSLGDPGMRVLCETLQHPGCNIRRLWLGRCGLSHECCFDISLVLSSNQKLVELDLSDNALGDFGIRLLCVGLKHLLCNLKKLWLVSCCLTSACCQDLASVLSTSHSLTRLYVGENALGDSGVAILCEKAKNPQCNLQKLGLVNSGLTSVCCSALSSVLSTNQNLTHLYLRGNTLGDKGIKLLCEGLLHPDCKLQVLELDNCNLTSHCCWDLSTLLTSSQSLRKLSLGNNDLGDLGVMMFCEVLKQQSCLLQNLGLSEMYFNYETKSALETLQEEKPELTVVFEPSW

As to `COc1ccc(N2C(=O)/C(=C\c3ccccc3C(F)(F)F)SC2=S)cc1`, the inhibition result in data set [1], in data set [2] and in [3] was “inactive” in each case. Also, the inhibition entry in data set [4], in data set [5], in data set [6], in data set [7], in data set [8] and in [9] was “Active” in each case. Further, the inhibition entry in data set [10] and in data set [11] was “Active” in each case. The half-life at 1.5 µM in data set [12] came out at 2.07 h. In data set [13], the CLint scaled at 1.5 µM came to 11.2 mL/min/kg. In addition, in data set [14], the Kd came to 7.2 µM. In addition, the result (in [15]; in the data set on Mus musculus [16]; in the data set with Mus musculus [17]; with Mus musculus [19]; in the data set on Mus musculus [20]; in the data set with Mus musculus [21]) was Active. The Activity result in the data set on Mus musculus [18] was “Dose-Dependent Effect”.
